Results taken from article PMC9323625, “Structure–Function Insights into the Fungal Endo-Chitinase Chit33 Depict its Mechanism on Chitinous Material” (International Journal of Molecular Sciences, 2022).

Molecular target: T1, Chit33 (Trichoderma harzianum, UniProt Q12713, D165A/E167A)
T1 construct: gene chit33 (909 bp, 321 amino acids) expressed in Pichia pastoris GS115 from CHIT33-pIB4, secreted to the extracellular fraction; 33 kDa
T1 sequence (Q12713 20-321 D165A/E167A): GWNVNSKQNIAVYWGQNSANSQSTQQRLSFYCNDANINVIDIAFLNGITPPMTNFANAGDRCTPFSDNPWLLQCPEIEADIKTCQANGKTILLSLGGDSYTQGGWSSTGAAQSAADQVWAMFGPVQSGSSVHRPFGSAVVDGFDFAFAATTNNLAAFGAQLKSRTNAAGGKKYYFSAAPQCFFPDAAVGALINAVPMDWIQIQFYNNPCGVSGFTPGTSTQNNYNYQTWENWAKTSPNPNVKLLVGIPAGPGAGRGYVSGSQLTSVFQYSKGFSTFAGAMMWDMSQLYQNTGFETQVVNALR
Test: X-ray crystal structure, […] Å
Type: binding
Details: crystal soaked with 18 mM NAG4 for 30 min; active site, subsites −2 to +2; inactivated double mutant

CC(=O)N[C@H]1[C@H](O[C@H]2[C@H](O)[C@@H](NC(C)=O)C(O)O[C@@H]2CO)O[C@H](CO)[C@@H](O[C@@H]2O[C@H](CO)[C@@H](O[C@@H]3O[C@H](CO)[C@@H](O)[C@H](O)[C@H]3NC(C)=O)[C@H](O)[C@H]2NC(C)=O)[C@@H]1O (stereo partly shown) [NAG4, N,N’,N’’,N’’’-acetyl chitotetraose]
X-ray crystal structure, 1.60 Å: we determined the crystal structure of the inactive double-mutant D165A/E167A with the substrate NAG4
